Laboratory results published in patent US6511971B1, “Substituted perhalogenated phthalocyanines” (Brown University Research Foundation, priority 1998, dated 2003).

Key:
EMT-6 tumor = experiment: In vivo phototoxicity: photodynamic therapy in murine EMT-6 tumor model; set-up: species or system BALB/c mice; settings: CRM emulsion
Description: The in vivo phototoxicity effects of ZnPcF64 on mouse tumors were determined by J. E. van Lier and colleagues at the University of Sherbrooke, Sherbrooke, QC, Canada, in accordance with published procedures. (Alleman et al. Int. J. Cancer, 72:289-294 (1997))
Experiments were performed on male BALB/c mice (16-22 g) and female Fisher CDF (F-344) rats (approx. 150 g) (Charles River, Montreal, Canada) following a protocol approved by the Canadian Council on Animal Care and an in-house ethics committee. Animals were allowed free access to water and food throughout the course of the experiments. Before tumor implantation, hair on the hind legs and back of the mice was removed by shaving and chemical depilating (Nair®, Whitehall, Mississauga, Canada). A tumor was implanted on each hind thigh by intradermal injection of 2 times 10^5 EMT-6 cells suspended in 0.05 ml Waymouth's growth medium. Biodistribution and photodynamic activity of ZnPcF64 were assayed using a murine EMT-6 tumor model (Allémann et al. Int. J. Cancer, 72:289-294 (1997)).
For PDT studies, mice were used 6-8 days after tumor inoculation (tumor size: 3-5 mm diameter, 2-3 mm thickness). At this time point, the tumor is sufficiently large to be measured, while therapeutic response can be observed without interference of spontaneous necrosis (Margaron et al. Anticancer Res. 16:613-620 (1996)). Animals were given an i.v. injection of ZnPcF64 formulated as a CRM emulsion at I or 2.5 μmol kg^−1 (0.2 ml), and one tumor was treated with red light 24-72 hr later, while the other tumor served as a control. Tumors were illuminated with an 8-mm diameter beam of 650-700 nm light ([…] for a total fluence of 100-400 J .cm^−2) generated by a 1,000 W Xenon lamp, equipped with a 10-cm circulating water filter and 2 glass filters (Corion LL650 and LS700, Holliston, Mass.). A positive tumor response (necrosis) was assigned to tumors which appeared macroscopically as flat and necrotic tissues within a few days after PDT (Allémann et al. Int. J Canc. 66:821-824 (1996)). […]

[1] = tested on: EMT-6 mouse mammary tumor cells; experiment: In vitro phototoxicity: cell photo-inactivation, MTT cell survival assay; format: cell-based; settings: EMT-6 cells
Description: Chremophor emulsions were prepared and cell photo inactivation was determined by J. E. van Lier and colleagues at the University of Sherbrooke, Sherbrooke, QC, Canada, in accordance with published procedures. (Alleman et al. Int. J. Cancer, 72:289-294 (1997))
Chremophor EL (CRM) was obtained from BASF (Toronto, Canada). All solvents were of analytical grade, and all other chemicals were commercially available products. Zinc octakis (perfluoroisopropyl) perfluorophthalocyanine (“ZnPcF64”, 2.5 mg) was first dissolved in methanol (2 mL). 500 μL of Chremophor and 150 μL of propane diol were added to the solution. The methanol was evaporated by rotory evaporation at room temperature. The residue was diluted with PBS to 5 mL and sterile filtered (0.2 μm). […]
After incubation, cells were rinsed twice with PBS, refed with 100 μl Waymouth 15% FBS and exposed to red light. […] The fluence rate calculated over the absorbance peaks of the dyes (660-700 nm) was 10 mW cm^−2, for a total fluence of 0.6-36 J/cm^2. […] Plates were incubated overnight at 37° C., after which the absorbance was read at 595 nm by means of a microplate reader (BioRad, Mississauga, Canada). The average absorbance of the blank wells in which cells were omitted was subtracted from the readings of the other wells. The average absorbance of the control cells, which were incubated with dye-free Waymouth 1% FBS, represents 100% cell survival. […]

Zinc Octakis (perfluoroisopropyl) Perfluorophthalocyanine, Bis-acetone Solvate [ZnPcF64]
tumor response after PDT (EMT-6 tumor; 1 μmol/kg i.v., 650-700 nm light 24-72 hr later, EMT-6 tumor in mice): complete tumor necrosis | inflammation after PDT (EMT-6 tumor; 1 μmol/kg i.v., 650-700 nm light, EMT-6 tumor in mice): some inflammation | outcome of treated mice (lethality) (EMT-6 tumor; 2.5 μmol/kg i.v., tumor-bearing mice): died of shock | phototoxic effects ([1]; CRM emulsion at 1 and 3 μM, 1 or 24 hours incubation, red light 660-700 nm, 0.6-36 J/cm^2, any conditions): No phototoxic effects | Cell survival ([1]; highest dye concentrations and longest light exposure): 100%
